Test system: MV-4-11 cells
Experiment: Gene expression microarray analysis (Affymetrix PrimeView) and GSEA
Type: cell-based, human
Set-up: RFU PODN (11730768_x_at) / Fold change /veh PODN (11730768_x_at) / RFU LINC00158 (11744669_a_at) / Fold change /veh LINC00158 (11744669_a_at) / RFU DUSP10 (11751237_a_at) / Fold change /veh DUSP10 (11751237_a_at) / RFU ID3 (11757404_x_at) / Fold change /veh ID3 (11757404_x_at) / RFU PLEKHG5 (11737974_s_at) / Fold change /veh PLEKHG5 (11737974_s_at) / RFU LRRC4B (11730491_at) / Fold change /veh LRRC4B (11730491_at) / RFU GIMAP4 (11747438_a_at) / Fold change /veh GIMAP4 (11747438_a_at) / RFU KRT8 (11758183_x_at) / Fold change /veh KRT8 (11758183_x_at) / RFU CNN1 (11734310_a_at) / Fold change /veh CNN1 (11734310_a_at) / RFU VPS37D (11726825_at) / Fold change /veh VPS37D (11726825_at) / RFU C10orf10 (11716522_x_at) / Fold change /veh C10orf10 (11716522_x_at) / RFU KIR2DL2 /// KIR2DL4 /// KIR2DL5A /// KIR2DL5B /// KIR2DS1 /// KIR2DS2 /// KIR2DS3 /// KIR2DS4 /// KIR3DL3 /// KIR3DL3 /// KIR3DS1 (11738374_at) / Fold change /veh KIR2DL2 /// KIR2DL4 /// KIR2DL5A /// KIR2DL5B /// KIR2DS1 /// KIR2DS2 /// KIR2DS3 /// KIR2DS4 /// KIR3DL3 /// KIR3DL3 /// KIR3DS1 (11738374_at) / RFU C1QL1 (11718748_at) / Fold change /veh C1QL1 (11718748_at) / RFU TMPRSS4 (11747572_a_at) / Fold change /veh TMPRSS4 (11747572_a_at) / RFU HAMP (11756126_x_at) / Fold change /veh HAMP (11756126_x_at) / RFU RNFT2 (11725882_a_at) / Fold change /veh RNFT2 (11725882_a_at) / RFU NR4A2 (11747474_a_at) / Fold change /veh NR4A2 (11747474_a_at) / RFU ABCC12 (11746883_a_at) / Fold change /veh ABCC12 (11746883_a_at) / RFU TMEM136 (11760407_x_at) / Fold change /veh TMEM136 (11760407_x_at) / RFU CLDN22 /// WWC2 (11732394_at) / Fold change /veh CLDN22 /// WWC2 (11732394_at) / RFU HLA-DPB1 (11760878_x_at) / Fold change /veh HLA-DPB1 (11760878_x_at) / RFU SPINT1 (11716480_a_at) / Fold change /veh SPINT1 (11716480_a_at) / RFU GAP43 (11754022_s_at) / Fold change /veh GAP43 (11754022_s_at) / RFU A4GNT (11735810_at) / Fold change /veh A4GNT (11735810_at) / RFU PRB3 (11715151_x_at) / Fold change /veh PRB3 (11715151_x_at) / RFU TUBB4B (11761932_at) / Fold change /veh TUBB4B (11761932_at) / RFU CAPN14 (11732068_a_at) / Fold change /veh CAPN14 (11732068_a_at) / RFU TMCC2 (11721928_a_at) / Fold change /veh TMCC2 (11721928_a_at) / RFU IRGQ (11745062_a_at) / Fold change /veh IRGQ (11745062_a_at) / RFU FAM174B (11720279_a_at) / Fold change /veh FAM174B (11720279_a_at) / RFU TMPRSS4 (11748680_a_at) / Fold change /veh TMPRSS4 (11748680_a_at) / RFU FAM212B (11763350_a_at) / Fold change /veh FAM212B (11763350_a_at) / RFU PLEKHG5 (11743358_a_at) / Fold change /veh PLEKHG5 (11743358_a_at) / RFU ZSCAN30 (11745921_a_at) / Fold change /veh ZSCAN30 (11745921_a_at) / RFU CMKLR1 (11741424_a_at) / Fold change /veh CMKLR1 (11741424_a_at) / RFU LOC101060620 /// MAPK8IP1 (11723275_at) / Fold change /veh LOC101060620 /// MAPK8IP1 (11723275_at) / RFU SPTSSB (11747773_x_at) / Fold change /veh SPTSSB (11747773_x_at) / RFU PRSS12 (11739890_at) / Fold change /veh PRSS12 (11739890_at) / RFU BIN1 (11741810_x_at) / Fold change /veh BIN1 (11741810_x_at) / RFU WNT11 (11732464_a_at) / Fold change /veh WNT11 (11732464_a_at) / RFU C10orf10 (11716521_a_at) / Fold change /veh C10orf10 (11716521_a_at) / RFU C5orf56 (11738089_at) / Fold change /veh C5orf56 (11738089_at) / RFU CYB561 (11721691_x_at) / Fold change /veh CYB561 (11721691_x_at) / RFU ANKRD19P (11752326_a_at) / Fold change /veh ANKRD19P (11752326_a_at) / RFU OR2T12 /// OR2T33 /// OR2T8 (11738714_s_at) / Fold change /veh OR2T12 /// OR2T33 /// OR2T8 (11738714_s_at) / RFU VCAN (11748164_a_at) / Fold change /veh VCAN (11748164_a_at) / RFU JSRP1 (11732532_at) / Fold change /veh JSRP1 (11732532_at) / RFU KRTAP10-11 (11738290_x_at) / Fold change /veh KRTAP10-11 (11738290_x_at) / RFU MYO3A (11730013_a_at) / Fold change /veh MYO3A (11730013_a_at) / RFU EBF3 (11725865_a_at) / Fold change /veh EBF3 (11725865_a_at) / RFU CAMK2N1 (11719241_x_at) / Fold change /veh CAMK2N1 (11719241_x_at) / RFU C5orf56 (11738088_a_at) / Fold change /veh C5orf56 (11738088_a_at) / RFU OLFML3 (11715873_a_at) / Fold change /veh OLFML3 (11715873_a_at) / RFU LOC100653217 /// NTM (11731650_a_at) / Fold change /veh LOC100653217 /// NTM (11731650_a_at) / RFU MAPK11 (11762145_a_at) / Fold change /veh MAPK11 (11762145_a_at) / RFU FIZ1 (11724087_x_at) / Fold change /veh FIZ1 (11724087_x_at) / RFU OASL (11726364_x_at) / Fold change /veh OASL (11726364_x_at) / RFU SOX15 (11748057_x_at) / Fold change /veh SOX15 (11748057_x_at) / RFU CD79A (11719716_a_at) / Fold change /veh CD79A (11719716_a_at) / RFU HIST1H1D (11736915_at) / Fold change /veh HIST1H1D (11736915_at) / RFU CASKIN2 (11723855_a_at) / Fold change /veh CASKIN2 (11723855_a_at) / RFU LOC730098 (11760151_x_at) / Fold change /veh LOC730098 (11760151_x_at) / RFU OR4N2 (11742367_at) / Fold change /veh OR4N2 (11742367_at) / RFU PRRT2 (11749266_a_at) / Fold change /veh PRRT2 (11749266_a_at) / RFU SNX32 (11753110_a_at) / Fold change /veh SNX32 (11753110_a_at) / RFU CDHR5 (11726645_a_at) / Fold change /veh CDHR5 (11726645_a_at) / RFU RCAN1 (11760418_a_at) / Fold change /veh RCAN1 (11760418_a_at) / RFU FAM167A (11723789_a_at) / Fold change /veh FAM167A (11723789_a_at) / RFU FAM26E (11764081_at) / Fold change /veh FAM26E (11764081_at) / RFU ISYNA1 (11749810_s_at) / Fold change /veh ISYNA1 (11749810_s_at) / RFU ACY1 (11761880_at) / Fold change /veh ACY1 (11761880_at) / RFU 11764098_at / Fold change /veh 11764098_at / RFU SAMD14 (11745864_x_at) / Fold change /veh SAMD14 (11745864_x_at) / RFU NPB (11741838_a_at) / Fold change /veh NPB (11741838_a_at) / RFU TMPRSS6 (11731388_a_at) / Fold change /veh TMPRSS6 (11731388_a_at) / RFU KRTAP10-2 (11738614_at) / Fold change /veh KRTAP10-2 (11738614_at) / RFU ARHGAP8 /// PRR5-ARHGAP8 (11727945_x_at) / Fold change /veh ARHGAP8 /// PRR5-ARHGAP8 (11727945_x_at) / RFU KRTAP5-7 /// NADSYN1 (11734609_at) / Fold change /veh KRTAP5-7 /// NADSYN1 (11734609_at) / RFU RASL12 (11751679_a_at) / Fold change /veh RASL12 (11751679_a_at) / RFU CDKN2B (11736163_a_at) / Fold change /veh CDKN2B (11736163_a_at) / RFU PRF1 (11729649_at) / Fold change /veh PRF1 (11729649_at) / RFU, ZNF638 /// ZNF638-IT1 / Fold change vs veh, ZNF638 /// ZNF638-IT1 / RFU, PANK3 / Fold change vs veh, PANK3 / RFU, SH3YL1 / Fold change vs veh, SH3YL1 / RFU, ZEB2 / Fold change vs veh, ZEB2 / RFU, NRIP1 / Fold change vs veh, NRIP1 / RFU, PTTG1IP / Fold change vs veh, PTTG1IP / RFU, CAPN2 / Fold change vs veh, CAPN2 / RFU, MED14 / Fold change vs veh, MED14 / RFU, SNORA58 / Fold change vs veh, SNORA58 / RFU, C1orf63 / Fold change vs veh, C1orf63 / RFU, LRRFIP1 / Fold change vs veh, LRRFIP1 / RFU, NDUFAF7 / Fold change vs veh, NDUFAF7 / RFU, SLC12A2 / Fold change vs veh, SLC12A2 / RFU, IBTK / Fold change vs veh, IBTK / RFU, ESF1 / Fold change vs veh, ESF1 / Fold change vs veh, TMEM50B / RFU, TAOK1 / Fold change vs veh, TAOK1 / RFU, ACBD3 / Fold change vs veh, ACBD3 / RFU, TMA16 / Fold change vs veh, TMA16 / RFU, RWDD3 / Fold change vs veh, RWDD3 / RFU, BCAT1 / Fold change vs veh, BCAT1 / RFU, EDEM3 / Fold change vs veh, EDEM3 / RFU, TMEM33 / Fold change vs veh, TMEM33 / RFU, WDR75 / Fold change vs veh, WDR75 / RFU, AHCTF1 / Fold change vs veh, AHCTF1 / RFU, TFRC / Fold change vs veh, TFRC / RFU, ZDHHC17 / Fold change vs veh, ZDHHC17 / RFU, NOM1 / Fold change vs veh, NOM1 / RFU, ARL8B / Fold change vs veh, ARL8B / RFU, ZBTB11 / Fold change vs veh, ZBTB11 / RFU, TAMM41 / Fold change vs veh, TAMM41 / RFU, KIAA1704 /// LOC100996395 / Fold change vs veh, KIAA1704 /// LOC100996395 / RFU, ING1 / Fold change vs veh, ING1 / RFU, TRMT61B / Fold change vs veh, TRMT61B / RFU, FUBP3 / Fold change vs veh, FUBP3 / RFU, TP53 / Fold change vs veh, TP53 / RFU, TNKS2 / Fold change vs veh, TNKS2 / RFU, ZFP14 / Fold change vs veh, ZFP14 / RFU, ACTR2 / Fold change vs veh, ACTR2 / RFU, PPP3R1 / Fold change vs veh, PPP3R1 / RFU, PIK3R1 / Fold change vs veh, PIK3R1 / RFU, HNRNPA1 / Fold change vs veh, HNRNPA1 / RFU, RNF170 / Fold change vs veh, RNF170 / RFU, ZNF28 / Fold change vs veh, ZNF28 / RFU, RNGTT / Fold change vs veh, RNGTT / RFU, OGT / Fold change vs veh, OGT / RFU, BRD1 / Fold change vs veh, BRD1 / RFU, MARS / Fold change vs veh, MARS / RFU, ZNF655 / Fold change vs veh, ZNF655 / RFU, FAHD1 / Fold change vs veh, FAHD1 / RFU, BDP1 / Fold change vs veh, BDP1 / RFU, LRRCC1 / Fold change vs veh, LRRCC1 / RFU, ARID1A / Fold change vs veh, ARID1A / RFU, ZNF146 / Fold change vs veh, ZNF146 / RFU, ZNF330 / Fold change vs veh, ZNF330 / RFU, GPN3 / Fold change vs veh, GPN3 / RFU, C9orf123 / Fold change vs veh, C9orf123 / RFU, N4BP2L2 / Fold change vs veh, N4BP2L2 / RFU, ARFIP1 / Fold change vs veh, ARFIP1 / RFU, FAM179B / Fold change vs veh, FAM179B / RFU, BCL10 / Fold change vs veh, BCL10 / RFU, UHRF1BP1L / Fold change vs veh, UHRF1BP1L / RFU, BET1 / Fold change vs veh, BET1 / RFU, CNOT2 / Fold change vs veh, CNOT2 / RFU, ZNF268 / Fold change vs veh, ZNF268 / Fold change vs veh, ZNF507 / RFU, DGCR2 / Fold change vs veh, DGCR2 / RFU, WDSUB1 / Fold change vs veh, WDSUB1 / Fold change vs veh, HSP90B1 /// MIR3652 / RFU, ADSS / Fold change vs veh, ADSS / RFU, GK / Fold change vs veh, GK / RFU, ZNF148 / Fold change vs veh, ZNF148 / RFU, TAF9 / Fold change vs veh, TAF9 / RFU, SLC1A5 / Fold change vs veh, SLC1A5 / RFU, SLMO2 / Fold change vs veh, SLMO2 / RFU, ABCC4 / Fold change vs veh, ABCC4 / RFU, LOC101060439 /// RAP1B / Fold change vs veh, LOC101060439 /// RAP1B / RFU, RFX7 / Fold change vs veh, RFX7 / RFU, GTPBP10 / Fold change vs veh, GTPBP10 / RFU, CNEP1R1 / Fold change vs veh, CNEP1R1 / RFU, BIVM-ERCC5 /// ERCC5 / Fold change vs veh, BIVM-ERCC5 /// ERCC5 / RFU, ILF3 / Fold change vs veh, ILF3 / RFU 11762660_at / Fold change /veh 11762660_at / RFU VCAN (11757783_s_at) / Fold change /veh VCAN (11757783_s_at) / RFU DDX43 (11728927_at) / Fold change /veh DDX43 (11728927_at) / RFU KRT8 (11758188_x_at) / Fold change /veh KRT8 (11758188_x_at) / RFU NKD1 (11759106_at) / Fold change /veh NKD1 (11759106_at) / RFU SRD5A1 (11742802_a_at) / Fold change /veh SRD5A1 (11742802_a_at) / RFU TPSAB1 /// TPSB2 (11721975_s_at) / Fold change /veh TPSAB1 /// TPSB2 (11721975_s_at) / RFU GSTM3 (11746129_a_at) / Fold change /veh GSTM3 (11746129_a_at) / RFU IL23R (11737362_x_at) / Fold change /veh IL23R (11737362_x_at) / RFU TMEM51 (11727254_a_at) / Fold change /veh TMEM51 (11727254_a_at) / RFU PIWIL2 (11732686_x_at) / Fold change /veh PIWIL2 (11732686_x_at) / RFU ORM1 (11744905_x_at) / Fold change /veh ORM1 (11744905_x_at) / RFU CCDC152 (11743942_at) / Fold change /veh CCDC152 (11743942_at) / RFU ECM1 (11717891_a_at) / Fold change /veh ECM1 (11717891_a_at) / RFU IL23R (11748794_a_at) / Fold change /veh IL23R (11748794_a_at) / RFU TNFAIP8L3 (11732012_x_at) / Fold change /veh TNFAIP8L3 (11732012_x_at) / RFU MBOAT4 (11741988_at) / Fold change /veh MBOAT4 (11741988_at) / RFU 11764193_at / Fold change /veh 11764193_at / RFU TMEM53 (11763286_at) / Fold change /veh TMEM53 (11763286_at) / RFU MAGEB2 (11727129_at) / Fold change /veh MAGEB2 (11727129_at) / RFU TMEM200A (11744735_a_at) / Fold change /veh TMEM200A (11744735_a_at) / RFU CCDC152 (11751479_a_at) / Fold change /veh CCDC152 (11751479_a_at) / RFU FAM211A (11726209_a_at) / Fold change /veh FAM211A (11726209_a_at) / RFU RGS16 (11746705_a_at) / Fold change /veh RGS16 (11746705_a_at) / RFU VCAN (11755009_s_at) / Fold change /veh VCAN (11755009_s_at) / RFU RHOB (11743442_s_at) / Fold change /veh RHOB (11743442_s_at) / RFU RGS16 (11720943_a_at) / Fold change /veh RGS16 (11720943_a_at) / RFU RGS16 (11720944_at) / Fold change /veh RGS16 (11720944_at) / RFU, VPS4B / Fold change vs veh, VPS4B / RFU, CREB1 / Fold change vs veh, CREB1 / RFU, DNAJC13 / Fold change vs veh, DNAJC13 / RFU, GNAQ / Fold change vs veh, GNAQ / RFU, CDK5R1 / Fold change vs veh, CDK5R1 / RFU, ZRANB3 / Fold change vs veh, ZRANB3 / RFU, CUL4A / Fold change vs veh, CUL4A / RFU, CCNY / Fold change vs veh, CCNY / RFU, UFL1 / Fold change vs veh, UFL1 / RFU, COG3 / Fold change vs veh, COG3 / RFU, DIAPH2 / Fold change vs veh, DIAPH2 / RFU, SKA2 / Fold change vs veh, SKA2 / RFU, AFF3 / Fold change vs veh, AFF3 / RFU, LMF1 / Fold change vs veh, LMF1 / RFU, IPO11 / Fold change vs veh, IPO11 / RFU, DFFB / Fold change vs veh, DFFB / RFU, FOXP1 / Fold change vs veh, FOXP1 / RFU, CARD8 / Fold change vs veh, CARD8 / RFU, STRN3 / Fold change vs veh, STRN3 / RFU, ADK / Fold change vs veh, ADK / RFU, RASSF2 / Fold change vs veh, RASSF2 / RFU, WIPF1 / Fold change vs veh, WIPF1 / RFU, LARP1B / Fold change vs veh, LARP1B / RFU, RASA1 / Fold change vs veh, RASA1 / RFU, RB1 / Fold change vs veh, RB1 / RFU, PPFIA1 / Fold change vs veh, PPFIA1 / RFU, MAT2A / Fold change vs veh, MAT2A / RFU, CCT5 / Fold change vs veh, CCT5 / RFU, WDR92 / Fold change vs veh, WDR92 / RFU, CUX1 / Fold change vs veh, CUX1 / RFU, TTC7A / Fold change vs veh, TTC7A / RFU, TMEM135 / Fold change vs veh, TMEM135 / RFU, DEPTOR / Fold change vs veh, DEPTOR / RFU, CPM / Fold change vs veh, CPM / RFU, DNAJB6 / Fold change vs veh, DNAJB6 / RFU, CACNA2D3 / Fold change vs veh, CACNA2D3 / RFU, DTX4 / Fold change vs veh, DTX4 / RFU, TFCP2 / Fold change vs veh, TFCP2 / RFU, GMCL1 /// GMCL1P1 / Fold change vs veh, GMCL1 /// GMCL1P1 / RFU, AEBP2 / Fold change vs veh, AEBP2 / RFU, SNHG1 /// SNORD22 /// SNORD25 /// SNORD26 /// SNORD27 /// SNORD28 /// SNORD29 /// SNORD31 / Fold change vs veh, SNHG1 /// SNORD22 /// SNORD25 /// SNORD26 /// SNORD27 /// SNORD28 /// SNORD29 /// SNORD31 / Fold change (Aza/veh), C12orf56 (ProbeSet 11735607_a_at) / Fold change (ACY-1035/veh), C12orf56 (ProbeSet 11735607_a_at) / Fold change (Aza/veh), FGFR1OP (ProbeSet 11751329_s_at) / Fold change (ACY-1035/veh), FGFR1OP (ProbeSet 11751329_s_at) / Fold change (Aza/veh), VPS36 (ProbeSet 11739960_a_at) / Fold change (ACY-1035/veh), VPS36 (ProbeSet 11739960_a_at) / RFU SYPL1 (11715823_x_at) / Fold change /veh SYPL1 (11715823_x_at) / RFU IGFBP7 (11715501_s_at) / Fold change /veh IGFBP7 (11715501_s_at) / RFU REEP3 (11722064_at) / Fold change /veh REEP3 (11722064_at) / RFU IGLL1 (11728026_x_at) / Fold change /veh IGLL1 (11728026_x_at): dose or concentration left out as unconfirmed
Settings: MV-4-11 cells, 48 hours

Nc1ccc(-c2cccs2)cc1NC(=O)c1ccc2c(c1)cc(C1CC1)n2CCN1CCOCC1 [ACY-1035]
Fold change /veh RGS16 (11720944_at): 0.97

— publication PMC5218480 (PLoS ONE, 2017)
